Experiment: Solubility
Assay type: physicochemical
Settings: precipitation at higher concentrations in the assay

O=C(Nc1ccc(-c2ccccc2)cc1)Nc1ccc(-c2ccnc3[nH]cnc23)cc1 [Compound 17]
solubility: poor solubility

Reference: paper PMC4481867 (Bioorganic & medicinal chemistry letters, 2012)
